Experimental data as given in patent EP0551662A1, “Benzofuranyl- and thiophenylmethylthio-alcanecarboxylic acid derivatives” (BAYER AG, priority 1992, dated 1993).

Key:
[1] = test system: polymorphonuclear granulocytes; test: FMLP-induced chemiluminescence of polymorphonuclear granulocytes (inhibition of FMLP-stimulated production of superoxide radical anions); format: cell-based; details: human PMN
Procedure: 1. Preparation of human PMN Blood was taken from healthy subjects by venous puncture and neutrophils were purified by dextran sedimentation and resuspended in the buffered medium. 2. Inhibition of FMLP-stimulated production of superoxide radical anions. Neutrophils (2.5 × 10⁵ ml⁻¹) were mixed with the compounds according to the invention in dimethyl sulphoxide (DMSO), the final concentration of the compounds according to the invention being 10 µM and the DMSO concentration being 1% v/v. After addition of luminol, final concentration about 10⁻⁵M and 33 µg/ml of cytochalasin B, the cells were stimulated with a final concentration of about 5 × 10⁻⁸ M FMLP. Measurement of the chemiluminescence peaks was carried out using an LKB 1251 luminometer. The inhibition of the superoxide and the reduction of cytochrome C by FMLP-stimulated cells was likewise measured. Neutrophils (2.6 × 10⁵ ml⁻¹) were mixed with the compounds according to the invention as in the chemiluminescence experiment. Cytochrome C with a concentration of […] is also present. The superoxide-dependent cytochrome C reduction was measured using a Molecular Devices Thermomax plate reader. The inhibition of superoxide production was calculated as follows: [formula] […]

[2] = test system: mitochondrial fraction; test: Mitochondrial substrate oxidation assay (oxygen electrode); format: biochemical; details: NADPH oxidation by mitochondria, final concentration of 300 µM of the test substance, guinea pig hearts
Procedure: 7. Mitochondrial substrate oxidation assay A mitochondrial fraction was prepared from finely-cut guinea pig hearts. […] The compounds according to the invention were tested to gauge their inhibition of cell respiration by measurement of their effect on the oxidation of these two substances at a concentration of up to 100 µg/ml⁻¹. % inhibition of NADPH oxidation by mitochondria at a final concentration of 300 µM of the test substance Table C

[3] = target: T1, NADPH oxidase (Homo sapiens, UniProt P04839); test: NADPH oxidase assay in membrane fractions of PMA-stimulated neutrophils; format: biochemical; details: final concentration of 33 µM of the test substance
T1 construct: endogenous in cells; host or cells: neutrophils, PMA-stimulated, sonicated; membrane fraction
T1 sequence (P04839 2-570 limits assumed): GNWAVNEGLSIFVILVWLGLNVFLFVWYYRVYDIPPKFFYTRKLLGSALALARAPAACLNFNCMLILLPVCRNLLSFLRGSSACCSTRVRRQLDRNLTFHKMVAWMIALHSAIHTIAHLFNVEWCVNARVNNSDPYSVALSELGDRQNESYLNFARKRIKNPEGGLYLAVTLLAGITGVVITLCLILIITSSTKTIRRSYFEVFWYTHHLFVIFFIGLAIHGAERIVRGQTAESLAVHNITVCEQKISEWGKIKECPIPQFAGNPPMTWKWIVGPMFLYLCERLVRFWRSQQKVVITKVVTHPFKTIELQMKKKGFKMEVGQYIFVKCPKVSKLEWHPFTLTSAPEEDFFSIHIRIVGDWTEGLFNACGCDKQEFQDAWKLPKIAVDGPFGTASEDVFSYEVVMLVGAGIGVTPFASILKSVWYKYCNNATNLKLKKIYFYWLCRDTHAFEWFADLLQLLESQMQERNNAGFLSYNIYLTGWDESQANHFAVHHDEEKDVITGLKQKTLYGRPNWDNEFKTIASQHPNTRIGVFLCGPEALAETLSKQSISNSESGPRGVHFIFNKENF
T1 sequence (P13498 2-195 partner limits assumed): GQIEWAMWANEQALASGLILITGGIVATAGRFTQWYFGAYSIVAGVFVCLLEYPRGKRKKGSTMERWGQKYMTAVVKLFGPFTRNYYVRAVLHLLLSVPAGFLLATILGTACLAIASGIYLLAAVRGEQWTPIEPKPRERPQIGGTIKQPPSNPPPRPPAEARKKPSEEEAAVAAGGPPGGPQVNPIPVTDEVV
Procedure: 3. Inhibition of myeloperoxidase The compounds according to the invention were tested for their action on human neutrophil myeloperoxidase activity by the established method of Bos, A.J. et al., Infection and Immunity, 1981, 32 (2), 427-431. 4. Xanthine oxidase assay Equal parts of the substrate (7.5 mM hypoxanthine) were incubated at 25°C with the compounds according to the invention or carrier, and 10⁻⁵ M luminol and the enzyme xanthine oxidase were added immediately before starting the luminescence measurement. The formation of superoxide was then measured for 140 sec in the 1251 luminometer. The activity was in each case measured against xanthine oxidase in the presence or absence of the compounds according to the invention by monitoring the growth of the absorption at 292 nm due to the formation of uric acid. 5. Determination of the specificity When neutrophils are activated by PMA or FMLP, they release the lysosomal enzyme beta-glucuronidase. […] Using a concentration of 10⁶ cells ml⁻¹, the compounds according to the invention were tested in parallel using a cell preparation thereof to gauge their capability to inhibit FMLP-induced superoxide production and FMLP-induced beta-glucuronidase release. 6. NADPH oxidase assay Neutrophils were stimulated with PMA and treated with ultrasound, and a membrane fraction was prepared. […]

IC50 ([1]; read-out: IC₅₀) [nM] | inhibition at 33 µM [3] [%] | SMILES | inhibition at 10 µM ([1]; 10 µM of the test substance) [%] | % inhibition (mitochondrial respiration) [2] [%]
700 | 21 ± 7 | COc1ccc(C(=O)c2oc3ccccc3c2CSCCC(=O)O)cc1C(=O)NS(=O)(=O)c1ccccc1C [Example 17, 2-[4-Methoxy-3-(2-tolylsulphonamide-carbonyl)-benzoyl]-3-[(2-carboxyethyl)thiomethyl]benzo[b]furan] | 96 ± 2 | 24 ± 2
 | 20 | COc1ccc(C(=O)c2oc3ccccc3c2CSCCC(=O)O)cc1C(=O)O [Example 31] |  | 0 ± 7
